Tests used:
[1] = test system: CT2A mouse glioma cells; assay: Cytokine/chemokine array of glioma cell lysates; format: cell-based; details: OBT 4 μM, 24 hrs
Protocol: To evaluate the effect of OBT on glioma secretome, CT2A mouse glioma cells were treated with OBT (4 μM) for 24 hrs and analyzed cell lysates by cytokine/chemokine array. GBM cells responded to OBT, Nrf2 and ROS induction, by activating several cytokines known to be involved in immune cell chemotaxis and migration (CCL2, CXCL10, IL-6). […] These innate immunity-related factors may directly contribute to control tumor growth or shape the development of adaptive immunity. Thus, OBT can induce factors that induces activation of tumor immune response.

[2] = test system: tumour-infiltrating CD4+ and CD8+ T cells; assay: Ex vivo stimulation of tumour-infiltrating T cells (anti-CD3/anti-CD28); format: cell-based, mice; details: cells from OBT-treated tumours, cultured 3 days
Text: To confirm reversion of T cell exhaustion and activation of cytotoxic T cells by OBT, tumour-infiltrating CD4+ and CD8+ T cells (n=3) were isolated and cultured in the presence of anti-CD3 and anti-CD28 antibodies to mimic an antigenic stimulation.

[3] = test system: cancer cells; assay: Cancer cell death with OBT, JQ1, OBT-JQ1; format: cell-based; details: OBT combined with JQ1, FIG. 22
Protocol: Cell viability: Cells were plated in 96-well plates and treated with the corresponding compounds. Cell viability was measured by adding 25 μl/well of CellTiter-Glo (Promega) followed by 10 minutes incubation and transfer to a white 96-well plate. Bioluminescence was quantified using Synergy HTX multimode reader (Biotek).

[4] = test system: ARE (Nrf2 pathway); assay: ARE-Gluc luciferase reporter (normalized to SV40-Vluc); format: cell-based, human
Text: DNA expression constructs: ARE reporter was designed and generated based on our previously published reporter for monitoring of the transcription factor Nuclear Factor Kappa B (NFkB). NFkB TRE elements were removed and replaced with four copies of the ARE enhancer sequence. This reporter consists of a CSCW lentivirus vector in which we have introduced two copies of the 1.2 kb chicken beta-globin (HS4) insulator elements, a TATA box acting as a minimal promoter upstream of the secreted Gaussia luciferase (Gluc). pcDNA3-HA2-Keap1 (Addgene plasmid #21556) and pcDNA3-HA2-Keap1 delta BTB (Addgene plasmid #21593) were a gift from Yue Xiong^2. pHAGE DN Cullin 3 (DN-CUL3) was a gift from Stephen Elledge (Addgene plasmid #41913). Constructs expressing constitutively active Gluc, Firefly luciferase (Fluc) and Vargula luciferase (Vluc) were previously describe. MISSION shRNA Bacterial Glycerol Stocks for Keap1 as well as a non-target shRNA were obtained from Sigma. Transfection of plasmid DNA was performed using Lipofectamine 2000 (Invitrogen) as per manufacturer's guidelines. Lentivirus packaging and titration was performed in 293T cells by the MGH viral vector core facility following standard protocols. Keap1 mutant C151S plasmid was kindly provided by Dr. Wooyoung Hur.
Luciferase assay: Coelenterazine (20 μM; Nanolight), The Gluc substrate was added to a 25 μL aliquot of conditioned medium and photon counts were measured using a luminometer. Similarly, the secreted Vluc activity was measured by adding its substrate vargulin (5 ng/mL; Nanolight). Cells stably expressing Gluc under the ARE enhancer sequence and Vluc under the constitutively active SV40 minimal promoter were used to determine the ARE reporter activity. The normalized Gluc/Vluc ratio was used as a marker for ARE activation.

[5] = test system: HO1 transcripts in MDA-MB-231 tumors; assay: HO1 mRNA in fat pad breast tumors in vivo; set-up: species or system mice; details: 7.5 mg/kg i.p. for four consecutive days
Protocol: Real-time qRT-PCR: Total RNA isolation from cultured cells was performed using RNeasy kit (Qiagen), followed by reverse transcription with OneScript cDNA synthesis Kit (ABM). mRNA expression of different genes was then analyzed by quantitative PCR using PowerUp SYBR Green Master Mix (Applied Biosystems) and performed using a QuantStudio3 real-time PCR system (Applied Biosystems). Primer sequences for HO1, NQO1, TXNRD2 were obtained from the MGH primer bank and were as follows: HO1 Forward, 5′-[…]-3′ and reverse 5′-[…]-3′; NQO1 Forward 5′-[…]-3′ and reverse 5′-[…]-3′ and Txnrd2 forward 5′-[…]-3 and reverse 5′-[…]. Oligonucleotides were synthesized by the CCIB DNA Core Facility at Massachusetts General Hospital. Expression of human GAPDH was used to mRNA normalization and relative mRNA expression was calculated using the comparative Ct method.
In vivo Tumor Models: Animal experiments performed by our laboratory were approved by the Massachusetts General Hospital Subcommittee on Research Animal Care. Female athymic nude mice (6-8 weeks) were used in all studies with the exception of pharmacokinetics analysis. For brain tumors xenograft model, GBM8 cells (1×10^5 cells/mouse) stably expressing Fluc were stereotactically implanted into the left striatum of animals. […] Tumor volumes were measured using a caliper and calculated according to the following formula: volume=(width)^2×length/2. […]

COC1=CC(=O)C(O)=C/C1=C/C=C/c1ccccc1 [OBT, (Z)-2-hydroxy-5-methoxy-4-((E)-3-phenylallylidene)cyclohexa-2,5-dien-1-one]
cytokines involved in immune response modulation (CD40, CXCL2, CCL5, CXCL-10, IL-6) [1]: induced secretion | response of CD4+ T cells to antigenic stimulus [2]: no change | response of CD8+ T cells to antigenic stimulus (proliferation, Ki67, granzyme B) [2]: significantly more responsive | interaction with JQ1 [3]: synergizes | OBT-induced ARE activation and loss of cell viability with thiol antioxidants ([4]; addition of NAC, DTT, GSH, U87): completely reversed | OBT-induced ARE activation and loss of cell viability with Trolox ([4]; addition of Trolox, U87): only partially | ARE luciferase reporter activity ([4]; sub-toxic doses, higher than positive control tBHQ, U87 and MDA-MB-231): strongly activated | upregulation of HO1 transcripts in the tumor [5]: 7 fold

— US12521439B2, “Methods and materials for modulating Nrf2 pathway” (The General Hospital Corporation, priority 2019, dated 2026)
